Test results from PubChem BioAssay (NCI).
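Where inhibition never reached the appropriate level, the endpoint shown equals the highest concentration tested. Otherwise, values were interpolated linearly from a five-concentration, 48-hour dose response in 96-well plates. Abbreviation: GI50, concentration required for 50% inhibition of growth. TGI: concentration producing complete growth inhibition.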

What was measured:
Assay in all cases: NCI-60 cell line screen, 48 h
[1] = system: SF-295 CNS
[2] = system: SW-620 colon
[3] = system: CAKI-1 renal
[4] = system: SN12C renal
[5] = system: TK-10 renal
[6] = system: HCT-15 colon
[7] = system: MDA-MB-435
[8] = system: LOX IMVI melanoma
[9] = system: COLO 205 colon
[10] = system: OVCAR-8 ovarian
[11] = system: SNB-19 CNS
[12] = system: UACC-257 melanoma
[13] = system: NCI-H226 lung
[14] = system: K-562 leukemia
[15] = system: A549 NSCLC
[16] = system: NCI-H460 lung
[17] = system: NCI/ADR-RES ovarian
[18] = system: SR leukemia
[19] = system: HOP-62 NSCLC
[20] = system: A498 renal
[21] = system: PC-3 prostate
[22] = system: SK-OV-3 ovarian
[23] = system: M14 melanoma
[24] = system: MDA-MB-468 breast
[25] = system: OVCAR-3 ovarian
[26] = system: MALME-3M melanoma
[27] = system: HS 578T breast
[28] = system: CCRF-CEM leukemia
[29] = system: MDA-MB-231 breast
[30] = system: UO-31 renal
[31] = system: SF-539 CNS
[32] = system: HCC-2998 colon
[33] = system: DU-145 prostate
[34] = system: UACC-62 melanoma
[35] = system: IGROV1 ovarian
[36] = system: HT29 colon
[37] = system: OVCAR-5 ovarian
[38] = system: HL-60(TB) leukemia
[39] = system: BT-549 breast
[40] = system: OVCAR-4 ovarian
[41] = system: ACHN renal
[42] = system: KM12 colon
[43] = system: MOLT-4 leukemia
[44] = system: SF-268 CNS
[45] = system: U251 CNS
[46] = system: SK-MEL-2 melanoma
[47] = system: SK-MEL-28 melanoma
[48] = system: SK-MEL-5 melanoma
[49] = system: 786-0 renal
[50] = system: RPMI-8226 leukemia
[51] = system: EKVX NSCLC
[52] = system: HOP-92 NSCLC
[53] = system: HCT-116 colon
[54] = system: RXF 393 renal
[55] = system: SNB-75 CNS
[56] = system: NCI-H23 lung
[57] = system: NCI-H522 lung
[58] = system: MCF7 breast

SMILES: Cn1cc(-c2nc(N)nnc2-c2c[nH]c3ccc(F)cc23)c2cc(Br)cnc21
- GI50 [1]: 48.8 nM
- TGI [1]: 12300 nM
- GI50 [2]: 48.7 nM
- TGI [2]: 15200 nM
- GI50 [3]: 76.4 nM
- TGI [3]: 17000 nM
- GI50 [4]: 204 nM
- TGI [4]: 13800 nM
- GI50 [5]: 10600 nM
- TGI [5]: 25800 nM
- GI50 [6]: 52.3 nM
- TGI [6]: 11600 nM
- GI50 [7]: 26.2 nM
- TGI [7]: 78.2 nM
- GI50 [8]: 63.5 nM
- TGI [8]: 14900 nM
- GI50 [9]: 73.7 nM
- TGI [9]: 886 nM
- GI50 [10]: 192 nM
- TGI [10]: 12400 nM
- GI50 [11]: 139 nM
- TGI [11]: 12700 nM
- GI50 [12]: 11800 nM
- TGI [12]: 25100 nM
- GI50 [13]: 109 nM
- TGI [13]: 12700 nM
- GI50 [14]: 39.4 nM
- TGI [14]: > 100000 nM
- GI50 [15]: 172 nM
- TGI [15]: > 48400 nM
- GI50 [16]: 45.8 nM
- TGI [16]: 3770 nM
- GI50 [17]: 155 nM
- TGI [17]: 1170 nM
- GI50 [18]: 38.8 nM
- TGI [18]: > 54900 nM
- GI50 [19]: 85.8 nM
- TGI [19]: 19200 nM
- GI50 [20]: 13600 nM
- TGI [20]: 27100 nM
- GI50 [21]: 94.9 nM
- TGI [21]: 48900 nM
- GI50 [22]: 126 nM
- TGI [22]: 19600 nM
- GI50 [23]: 87 nM
- TGI [23]: 16200 nM
- GI50 [24]: 27.2 nM
- TGI [24]: 124 nM
- GI50 [25]: 53 nM
- TGI [25]: 15700 nM
- GI50 [26]: 52.5 nM
- TGI [26]: 18800 nM
- GI50 [27]: 49.6 nM
- TGI [27]: 25800 nM
- GI50 [28]: 109 nM
- TGI [28]: > 67100 nM
- GI50 [29]: 121 nM
- TGI [29]: 8260 nM
- GI50 [30]: 276 nM
- TGI [30]: 13200 nM
- GI50 [31]: 46.2 nM
- TGI [31]: 405 nM
- GI50 [32]: 156 nM
- TGI [32]: 5770 nM
- GI50 [33]: 144 nM
- TGI [33]: 14100 nM
- GI50 [34]: 32.3 nM
- TGI [34]: 12800 nM
- GI50 [35]: 72.7 nM
- TGI [35]: 14300 nM
- GI50 [36]: 50.6 nM
- TGI [36]: 615 nM
- GI50 [37]: 217 nM
- TGI [37]: 14600 nM
- GI50 [38]: 39 nM
- TGI [38]: 290 nM
- GI50 [39]: 91.8 nM
- TGI [39]: 10100 nM
- GI50 [40]: 3560 nM
- TGI [40]: 33000 nM
- GI50 [41]: 91.1 nM
- TGI [41]: 15400 nM
- GI50 [42]: 50.8 nM
- TGI [42]: 13400 nM
- GI50 [43]: 161 nM
- TGI [43]: 14800 nM
- GI50 [44]: 1460 nM
- TGI [44]: 18900 nM
- GI50 [45]: 57.4 nM
- TGI [45]: 13000 nM
- GI50 [46]: 87.2 nM
- TGI [46]: 13600 nM
- GI50 [47]: 161 nM
- TGI [47]: 19500 nM
- GI50 [48]: 40.2 nM
- TGI [48]: 1690 nM
- GI50 [49]: 145 nM
- TGI [49]: 18000 nM
- GI50 [50]: 403 nM
- TGI [50]: > 100000 nM
- GI50 [51]: 279 nM
- TGI [51]: 17700 nM
- GI50 [52]: 5930 nM
- TGI [52]: 30700 nM
- GI50 [53]: 52.1 nM
- TGI [53]: 13100 nM
- GI50 [54]: 47.1 nM
- TGI [54]: 236 nM
- GI50 [55]: 47.4 nM
- TGI [55]: 14100 nM
- GI50 [56]: 198 nM
- TGI [56]: 11200 nM
- GI50 [57]: 19.3 nM
- TGI [57]: 231 nM
- GI50 [58]: 35.8 nM
- TGI [58]: 12300 nM
